In the NIST ThermoML archive (doi:10.1021/acs.jced.6b00365):

Conditions: dynamic light scattering

CCOC(C)(C)C [2-ethoxy-2-methylpropane]
Conditions | thermal diffusivity [m2/s]
293.13 K, Liquid | 5.67e-08
303.09 K, Liquid | 5.45e-08
313.21 K, Liquid | 5.16e-08
323.18 K, Liquid | 4.96e-08
333.18 K, Liquid | 4.79e-08
338.25 K, Liquid | 4.7e-08
343.17 K, Liquid | 4.64e-08
348.15 K, Liquid | 4.55e-08
353.08 K, Liquid | 4.49e-08
358.19 K, Liquid | 4.43e-08
363.1 K, Liquid | 4.38e-08
368.12 K, Liquid | 4.33e-08
373.11 K, Liquid | 4.3e-08
378.18 K, Liquid | 4.26e-08
383.14 K, Liquid | 4.2e-08
388.07 K, Liquid | 4.17e-08
393.06 K, Liquid | 4.15e-08
398.17 K, Liquid | 4.1e-08
403.22 K, Liquid | 4.08e-08
408.16 K, Liquid | 4.02e-08
413.1 K, Liquid | 4e-08
418.18 K, Liquid | 3.97e-08
423.09 K, Liquid | 3.95e-08
428.08 K, Liquid | 3.9e-08
433.07 K, Gas | 3.03e-07
433.18 K, Liquid | 3.85e-08
438.17 K, Liquid | 3.82e-08
443.06 K, Liquid | 3.77e-08
443.25 K, Gas | 2.57e-07
448.18 K, Liquid | 3.74e-08
453.13 K, Gas | 2.14e-07
453.18 K, Liquid | 3.68e-08
458.1 K, Liquid | 3.61e-08
463.05 K, Gas | 1.7e-07
463.19 K, Liquid | 3.53e-08
466.12 K, Liquid | 3.5e-08
468.16 K, Gas | 1.5e-07
469.18 K, Liquid | 3.45e-08
472.09 K, Liquid | 3.39e-08
473.25 K, Gas | 1.28e-07
475.06 K, Liquid | 3.33e-08
478.15 K, Liquid | 3.25e-08
478.2 K, Gas | 1.08e-07
481.24 K, Liquid | 3.16e-08
483.18 K, Gas | 8.76e-08
484.23 K, Liquid | 3.05e-08
487.17 K, Liquid | 2.95e-08
488.25 K, Gas | 6.52e-08
490.09 K, Liquid | 2.77e-08
493.14 K, Liquid | 2.63e-08
493.22 K, Gas | 3.68e-08
496.24 K, Liquid | 2.27e-08

Liquid
Conditions | thermal diffusivity [m2/s]
372.96 K, 4000 kPa | 4.4e-08
373.15 K, 7000 kPa | 4.47e-08
373.16 K, 10000 kPa | 4.5e-08
383.18 K, 10000 kPa | 4.45e-08
383.35 K, 7000 kPa | 4.41e-08
383.37 K, 4000 kPa | 4.34e-08
392.97 K, 7000 kPa | 4.35e-08
393 K, 4000 kPa | 4.27e-08
393.05 K, 10000 kPa | 4.4e-08
402.94 K, 4000 kPa | 4.2e-08
402.99 K, 7000 kPa | 4.28e-08
403.09 K, 10000 kPa | 4.35e-08
413.25 K, 10000 kPa | 4.3e-08
413.34 K, 7000 kPa | 4.21e-08
413.35 K, 4000 kPa | 4.12e-08
421.78 K, 4000 kPa | 4.07e-08
421.86 K, 7000 kPa | 4.16e-08
422.25 K, 10000 kPa | 4.24e-08
431.42 K, 4000 kPa | 4e-08
431.52 K, 7000 kPa | 4.1e-08
432.83 K, 10000 kPa | 4.18e-08
442.12 K, 4000 kPa | 3.92e-08
442.19 K, 7000 kPa | 4.04e-08
442.53 K, 10000 kPa | 4.13e-08
452.09 K, 4000 kPa | 3.85e-08
452.26 K, 7000 kPa | 3.98e-08
452.4 K, 10000 kPa | 4.08e-08
462.41 K, 4000 kPa | 3.75e-08
462.47 K, 7000 kPa | 3.92e-08
462.95 K, 10000 kPa | 4.03e-08
472.45 K, 4000 kPa | 3.65e-08
472.63 K, 7000 kPa | 3.87e-08
472.63 K, 10000 kPa | 3.99e-08
478.13 K, 10000 kPa | 3.97e-08
478.14 K, 7000 kPa | 3.84e-08
478.2 K, 4000 kPa | 3.6e-08
482.44 K, 4000 kPa | 3.52e-08
483.15 K, 7000 kPa | 3.82e-08
483.2 K, 10000 kPa | 3.95e-08
488.15 K, 7000 kPa | 3.79e-08
488.65 K, 4000 kPa | 3.44e-08
488.83 K, 10000 kPa | 3.93e-08
493.13 K, 4000 kPa | 3.34e-08
493.16 K, 7000 kPa | 3.77e-08
493.3 K, 10000 kPa | 3.92e-08
